{
  "source": "patent US20110081428A1",
  "about": "“Use of thioflavin-like compounds to increase life span and/or health span” (priority 2009, published 2011)",
  "format_in_all_cases": "in vivo, Caenorhabditis elegans",
  "key": {"[1]": {"test_system": "TJ1052 [age-1(hx546)II]", "experiment": "Lifespan assay, age-1 mutant", "settings": "50 μM ThT, 25° C.", "protocol": "Lifespan assays were performed as described previously. (McColl, G. et al. Pharmacogenetic analysis of lithium-induced delayed aging in Caenorhabditis elegans. J Biol Chem 283, 350-357 (2008). Briefly, the nematode growth media (NGM) plates were prepared under sterile conditions. 100 μL of concentrated stocks of each of the compounds used in this study were added onto a previously prepared NGM small plate (3 mL volume) immediately spread over the surface of the plate. The final concentrations quoted in the text assume an even distribution of compound throughout the 3 ml plate. The plates were then placed in a laminar flow hood at room temperature for 30 min and then 60 μL of a concentrated suspension of E. coli OP50 was spotted to form a circular lawn on the center of each plate. Thirty late L4 larvae growing at 20° C. were transferred to fresh NGM plates with FUdR (75 μM) in presence or absence of the specified compounds and incubated at 20° C. The first day of adulthood is Day 3 in survival curves. There was between-experiment variation in the magnitude of the lifespan extension observed with ThT which appeared to correlate with different suppliers and batches. ThT concentration should be optimized depending on batch and purity and stability of the compound. […]\nAnimals were scored as alive, dead or lost every other day. […]"}, "[2]": {"test_system": "HE250 [unc-52(e669su250)II]", "experiment": "Worm paralysis assay, unc-52 ts mutant", "description": "(§1) Scoring for paralysis was initiated 2 and 8 days after temperature upshift for CL4176 and AM140, respectively. […] For sensitivity to EtOH or levamisole resistance, CW152 gas-1 (fc21) X and ZZ26 unc-63(x26)I worms were picked into 0.4 M EtOH or 50 μM levamisole, respectively, equilibrated for 5 min, and scored for paralysis as described above. Treated and untreated worms were compared with an unpaired t-test (implemented in Prism 4, Graphpad™ Software, Inc., San Diego, Calif., USA)."}, "[3]": {"test_system": "CB1157 [unc-54(e1157)I]", "experiment": "Worm paralysis assay, unc-54 ts mutant", "settings": "restrictive temperature 25° C.", "description": "as §1"}, "[4]": {"test_system": "aggregation-prone soluble oligomeric protein (A11 antibody) in CL4176", "experiment": "A11 immunolocalization of soluble oligomeric protein, CL4176", "settings": "CL4176, 50 μM ThT", "protocol": "For fluorescent microscopy, TJ356 zIs356 IV [daf-16::daf-16-gfp+rol-6] or CF2189 Is001(skn-1::gfp+rol-6) were paralyzed with 1 mM levamisole mounted on 1% agarose pads and imaged using Olympus BX51 (60× objective) and HCImage software (Hamamatsu). For immunofluorescence, N2, […], CB1157 unc-54(e1157) or CL4176 dvIs27 [myo-3::Aβ(3 to 42)-let 3′UTR(pAF29); pRF4 (rol-6(su1006))] worms were treated for 24-36 h with or without 50 μM ThT at 25° C. After this period the worms were collected, rinsed, and fixed in 4% paraformaldehyde overnight. […] Paramyosin and perlecans were detected with primary monoclonal antibodies 5-23 and MH3 (developed by Henry Epstein and Robert H. Waterston and obtained from the Developmental Studies Hybridoma Bank developed under the auspices of the NICHD and maintained by The University of Iowa, Department of Biology, Iowa City, Iowa 52242) and AlexaFluor 633 goat anti-mouse (Molecular Probes) as secondary antibody. Soluble oligomers and Aβ peptide were detected with anti polyclonal All (Invitrogen) and 6E10 monoclonal (Covance) primary antibodies, respectively, with AlexaFluor 568 goat anti-rabbit and AlexaFluor 488 goat anti-mouse (Molecular Probes) as secondary antibodies. Images were processed and quantified by using Image Analyst MK II (Novato, Calif.)."}, "[5]": {"test_system": "unc-54 RNA", "experiment": "Real time quantitative PCR, unc-54", "settings": "50 μM ThT, 3, 6 and 12 days of treatment", "protocol": "Twelve single adults from control or 50 μM ThT populations were picked after 3, 6 and 12 days of treatment into 5 μl of distilled water and flash frozen until extraction. Individual worms were extracted using the RNeasy Micro Kit, TissueLyser and QIAcube (Qiagen). Using the manufacturer's standard Animal Tissue protocol, each sample was homogenized in buffer RLT/Bme (Qiagen) on the TissueLyser (6 min total at 20 Hz). Samples, reagents and columns were then loaded into the QIAcube robot, and processed using the “RNeasy Micro—Animal tissues and cells—DNase digest” program. Each sample was then eluted in 14 μl of Nuclease-free water. cDNA templates for the Real Time PCR reactions were made using a combination of Message Sensor RT kit (Ambion's) and TaqMan PreAmp Master Mix (Applied Biosystems). The entire worm sample was added to the RT reaction and reversed transcribed at 50° C. for 20 min, using Message Sensor's “Two Step RT-PCR Protocol” (sample RT's were randomized). Then 2.5 μl of the cDNA sample was pre-amplified with a “4×Multiplex Primer Mix” for 14 cycles using TaqMan PreAmp master mix and protocol (ABI). Two modifications were made to ABI's protocol: 1. the reaction volume was reduced to 10 μl and 2. after pre-amplification, each cDNA sample was diluted 1:5 with 1XTE Buffer (Promega). cDNA samples were stored at −20° C. until needed. […]"}},
  "note": "“Also recorded” adds a separate entry of the source.",
  "data": [
    {"smiles": "Cc1ccc2c(c1)sc(-c1ccc(N(C)C)cc1)[n+]2C.[Cl-]", "note": "[ThT, 4-(3,6-dimethyl-1,3-benzothiazol-3-ium-2-yl)-N,N-dimethylaniline chloride]", "values": [
      {"measurement": "lifespan of age-1(hx546) mutant", "setting": "[1]", "value": "extended the lifespan"},
      {"measurement": "paralysis phenotype, continuous exposure and addition after 18 h at restrictive temperature", "setting": "[2]; HE250, 50 μM ThT, scored after 36 h at 25° C.", "value": "Prevention of paralysis phenotype"},
      {"measurement": "paralysis phenotype of unc-52 mutant", "setting": "[2]; HE250, 25° C., 36 h, 50 μM ThT, 100 μM curcumin, 100 μM rifampicin", "value": "suppressed paralysis; also recorded: Protection"},
      {"measurement": "paralysis phenotype of unc-54 mutant", "setting": "[3]", "value": "suppressed paralysis"},
      {"measurement": "A11-positive oligomeric material", "setting": "[4]", "value": "significantly decreased"},
      {"measurement": "unc-54 RNA levels", "setting": "[5]", "value": "increases unc-54 RNA levels after 3, but not at 6 or 12 days of treatment"}
    ]}
  ]
}
